Results: patent US4874882A, “Process for preparing monosodium phosphoenolpyruvate” (Ube Industries, Ltd., priority 1986, dated 1989)

What was measured:
[1] = system: ischemic kidney of rabbit; assay: Effect on ischemic kidney of rabbit (BUN and creatinine value in blood, recovery of renal function); format: in vivo, male Japanese white-strain rabbits
Text: The animals used in this experiment were 10 male Japanese white-strain rabbits, and were grouped into a group of 5 rabbits to which the injection of monosodium phosphoenolpyruvate (hereinafter simply called "PEP·Na") prepared in Example 4 should be administered and a group of 5 rabbits to which a physiological saline should be administered,to carry out experiments as follows:
To each of the rabbits used in this experiment, a 1% aqueous solution of pentobarbital sodium was intravenously injected in an amount of 3 ml/kg (b.w.) to apply general anesthesia, and a median incision of its venter was carried out to extirpate the right kidney. Subsequently, the left kidney was exposed to infiltrate xylocaine into the surrounding portion of the renal pelvis, and the left renal artery was blocked while handling the kidney with tender care. More specifically, the blood flow of the renal artery was blocked for 60 minutes, and then released for 10 minutes, followed by blocking for more 60 minutes, to perform ischemia for 120 minutes in total. Thereafter, blocking was released for reperfusion. During these procedures, to the rabbits belonging to the PEP·Na group, PEP·Na was intravenously administered in the form of an injection prepared in Example, with a dose of 10 mg/kg (b.w.) every time immediately before release of the first and the second blocking, and, also after release of the blocking, PEP·Na was similarly administered with a dose of 10 mg/kg (b.w.) once a day. On the other hand, to the rabbits belonging to the control group, a physiological saline was intravenously administered in an amount of 1 ml/kg (b.w.) every time immediately before release of the first and the second blocking, and, also after release of the blocking, the physiological saline was similarly administered in an amount of 1 ml/kg (b.w.) once a day, every day.
Next, blood urea nitrogen (hereinafter "BUN") and creatinine value which are standards to know the morbidity of a kidney were assayed with time to make an index showing the recovery rate of renal function. Results obtained are shown in Table 1 and Table 2 and also in FIG. 1 and FIG. 2.

[2] = Acute toxicity (LD50) to beagle; format: in vivo; conditions: dog, in vivo, beagle
Experimental: (§1) Acute toxicity (LD50) in the case where monosodium phosphoenolpyruvate monohydrate was administered to a beagle was examined.

beagle = assay: Acute toxicity (LD50) to beagle; format: in vivo; conditions: conclusion from LD50 in beagle
Experimental: as §1

[3] = system: ischemic kidney of beagle; assay: Effect on ischemic kidney of beagle (BUN and creatinine value, recovery of renal function); format: in vivo, male beagles
Experimental: The animals used in this experiment were 6 male beagles, and were grouped into a group of 3 beagles to which the injection of PEP·Na prepared in Example should be administered and a group of 3 beagles to which a physiological saline should be administered, to carry out experiments as follows in the same manner as in Test Example 1.
To each of the beagles, a 5% aqueous solution of pentobarbital sodium was intravenously injected in an amount of 0.5 ml/kg (b.w.) to apply general anesthesia, and a median incision of its venter was carried out to extirpate the right kidney. Subsequently, the left kidney was exposed to infiltrate xylocaine into the surrounding portion of the renal pelvis, and the blood flow of the left renal artery was blocked for 90 minutes while handling the kidney with tender care. Thereafter, blocking was released for reperfusion. To the beagles belonging to the PEP·Na administered group, PEP·Na was intravenously administered in the form of an injection prepared in Example, with a dose of 100 mg/kg (b.w.) every time immediately after release of blocking, and, also, thereafter, PEP·Na was similarly administered with a dose of 100 mg/kg (b.w.) once a day every day. On the other hand, to the beagles belonging to the control group, physiological saline was intravenously administered in an amount of 10 ml/kg (b.w.) every time immediately after release of blocking, and, also thereafter, physiological saline was similarly administered in an amount of 10 ml/kg (b.w.) once a day.
Next, BUN and creatinine value were assayed with time to make an index showing the recovery rate of renal function. Results obtained are shown in Table 3 and Table 4 and also in FIG. 3 and FIG. 4.

[4] = after 1 day, 10 mg/kg i.v. before each release of blocking, then once a day
[5] = after 2 days, 10 mg/kg i.v. before each release of blocking, then once a day
[6] = after 3 days, 10 mg/kg i.v. before each release of blocking, then once a day
[7] = after 4 days, 10 mg/kg i.v. before each release of blocking, then once a day
[8] = after 5 days, 10 mg/kg i.v. before each release of blocking, then once a day
[9] = immediately before blocking (baseline)
[10] = rabbits, 1 day (24 hours) after release of blocking
[11] = rabbits, after day 1, over a period of 4 days, vs control group
[12] = after 1 day, 100 mg/kg i.v. immediately after release of blocking, then once a day
[13] = after 2 days, 100 mg/kg i.v. immediately after release of blocking, then once a day
[14] = after 3 days, 100 mg/kg i.v. immediately after release of blocking, then once a day
[15] = after 4 days, 100 mg/kg i.v. immediately after release of blocking, then once a day

SMILES: C=C(OP(=O)(O)O)C(=O)O [PEP.Na, monosodium phosphoenolpyruvate monohydrate]
- BUN of rabbits in PEP.Na-administered group [1, 4]: 54.2 ± 2.2 mg/dL
- Creatinine value of rabbits in PEP.Na-administered group [1, 4]: 2.83 ± 0.74 mg/dL
- BUN of rabbits in PEP.Na-administered group [1, 5]: 58.0 ± 15.2 mg/dL
- Creatinine value of rabbits in PEP.Na-administered group [1, 5]: 2.61 ± 0.87 mg/dL
- BUN of rabbits in PEP.Na-administered group [1, 6]: 44.1 ± 10.5 mg/dL
- Creatinine value of rabbits in PEP.Na-administered group [1, 6]: 2.06 ± 0.72 mg/dL
- BUN of rabbits in PEP.Na-administered group [1, 7]: 35.5 ± 11.0 mg/dL
- Creatinine value of rabbits in PEP.Na-administered group [1, 7]: 1.73 ± 0.40 mg/dL
- BUN of rabbits in PEP.Na-administered group [1, 8]: 15.0 ± 5.8 mg/dL
- Creatinine value of rabbits in PEP.Na-administered group [1, 8]: 1.19 ± 0.17 mg/dL
- Creatinine value of rabbits in PEP.Na-administered group [1, 9]: 1.18 ± 0.06 mg/dL
- BUN of rabbits in PEP.Na-administered group ([1]; immediately before blocking (baseline), mean ± spread): 14.5 ± 1.3 mg/dL
- recovery of renal function ([1]; rabbit): apparently effective for the recovery of renal function
- BUN compared with control group [1, 10]: significantly lower value of BUN
- creatinine compared with control group [1, 10]: significantly lower value of creatinine
- time course of BUN [1, 11]: gradually decreases thereafter over a period of 4 days and gets back to the value given before blocking earlier than in control group
- time course of creatinine [1, 11]: gradually decreases thereafter over a period of 4 days and gets back to the value before blocking earlier than in control group
- LD50 ([2]; intravenous): ≥ 1000 mg/kg
- LD50 ([2]; oral): ≥ 3000 mg/kg
- safety to a living body (beagle): very safe substance
- BUN of beagles in PEP.Na-administered group [3, 12]: 46 ± 8.3 mg/dL
- Creatinine value of beagles in PEP.Na-administered group [3, 12]: 3.0 ± 0.45 mg/dL
- BUN of beagles in PEP.Na-administered group [3, 13]: 63 ± 10.1 mg/dL
- Creatinine value of beagles in PEP.Na-administered group [3, 13]: 2.9 ± 0.41 mg/dL
- BUN of beagles in PEP.Na-administered group [3, 14]: 52 ± 9.6 mg/dL
- Creatinine value of beagles in PEP.Na-administered group [3, 14]: 2.5 ± 0.33 mg/dL
- BUN of beagles in PEP.Na-administered group [3, 15]: 44 ± 9.2 mg/dL
- Creatinine value of beagles in PEP.Na-administered group [3, 15]: 2.0 ± 0.31 mg/dL
- recovery of renal function ([3]; beagle): apparently effective for the recovery of renal function
- BUN compared with control group ([3]; beagles, 1 day (24 hours) after release of blocking): significantly lower value of BUN
- creatinine value compared with control group ([3]; beagles, 1 day after release of blocking): significantly lower value of creatinine value
- time course of creatinine value ([3]; beagles, after day 1, over a period of 3 days): gradually decreases thereafter over a period of 3 days
- time course of BUN ([3]; beagles, after release of blocking): reaches to a maximum after 2 days, but thereafter gradually decreases
- BUN of beagles in PEP.Na-administered group [3, 9]: 15 ± 0.5 mg/dL
- Creatinine value of beagles in PEP.Na-administered group [3, 9]: 0.8 ± 0.23 mg/dL
